Test results published in US10010576B2, “Method of treatment” (Hexima Limited, priority 2014, dated 2018).

Legend:
Microsporum fulvum = assay: Antifungal growth inhibition assay in 96 well microtitre plates (A595); assay type: cell-based
Method: (§1) The inhibitory effects of the plant defensins on the growth of Trichophyton rubrum, T. interdigitale, Microsporum fulvum and C. albicans (obtained from the National Mycology Reference Centre, South Australia Pathology at the Women's and Children's Hospital, Adelaide, Australia) are measured essentially as described by Broekaert et al. (1990) FEMS Microbiol Lett 69:55-59. Spores of T. rubrum, T. interdigitale and M. fulvum are isolated from sporulating fungus growing on 1⁄2 strength Sabouraud dextrose agar (SDA). Spores were removed from the plates by the addition of 1⁄2 strength potato dextrose broth (PDB). C. albicans cells are grown in Yeast Peptone Broth (YPD) for 16 h. Spore and cell concentrations are measured using a hemocytometer. Antifungal assays are conducted in 96 well microtitre plates essentially as herein described. Wells are loaded with 20 μm L of filter sterilized (0.22 μm syringe filter, Millipore) defensin (10× stock for each final concentration) or water and 80 μm L of 5×10^4 spores/mL (T. rubrum, T. interdigitale, M. fulvum) or 5,000 cells/mL (C. albicans) in 1⁄2 strength PDB. The plates are incubated at 30° C. Fungal growth is assayed by measuring optical density at 595 nm ([…]) using a microtitre plate reader (SpectraMax Pro M2; Molecular Devices. Growth is allowed to proceed until the optical density (OD) of the fungus in the absence of any test defensin reached an OD of 0.2. Each test is performed in duplicate.

Trichophyton rubrum = assay: as above; assay type: cell-based
Method: as §1

T. interdigitale = assay: as above; assay type: cell-based, Trichophyton interdigitale
Method: as §1

C. albicans = assay: as above; assay type: cell-based, Candida albicans
Method: as §1

[1] = tested on: Trichophyton rubrum, T. interdigitale, Microsporum fulvum and C. albicans; assay: Inhibition assays, summary across the range of fungal pathogens; assay type: cell-based; details: summary of Table 3
Method: as §1

[2] = tested on: Human monocytic lymphoma (U937) cells; assay type: cell-based
Method: Human monocytic lymphoma (U937) cells are cultured in RPMI-1640 medium. All culture media are supplemented with 5-10% v/v fetal calf serum, 100 U/ml of penicillin, and 100 μg/ml of streptomycin. Cell lines are cultured at 37° C. in a humidified atmosphere containing 5% v/v CO2. Adherent cell lines are detached from the flask by adding a mixture containing 0.25% v/v trypsin and […] EDTA. A flow cytometry-based propidium iodide (PI) uptake assay is performed to analyze the ability of plant defensins to permeabilize U937 cells (essentially as described in Poon et al, 2014). Briefly, cells are suspended to 1×10^6 cells/ml in 0.1% v/v BSA/RPMI-1640 and incubated with plant defensins (10 μM) at 37° C. for 30 min Samples are added to PBS containing a final concentration of 1 μg/ml PI and placed on ice. Samples are then analyzed immediately using the BD FACSCanto II Flow Cytometer and BD FACSDiva software v6.1.1. The resultant flow cytometry data is analyzed using FlowJo software v8.8.6. Cells are gated appropriately based on forward scatter and side scatter and cell permeabilization is defined by PI-positive staining.

[3] = Penetration through human nails (nail adapter, wetted cotton bud receptor, RP-HPLC); assay type: in vitro ADME
Method: Penetration of NaD1 through human nails was measured according to the method of Hui et al. (2002) J Pharm Sci 91(1):189-195. Human toenails were obtained from ScienceCare (USA) and washed with phosphate buffered saline (details, PBS) before being placed on a kimwipe that had been soaked in PBS for 3 h to rehydrate the nail. […]
The cotton bud in contact with the underside of the nail was removed after 24 h and every 24 h following. Protein that had passed through the nail was recovered from the cotton bud by washing twice with 500 μL of 0.1% v/v trifluoroacetic acid. Recovered protein was quantified using RP-HPLC.

[4] = Day 3, 10 uL of 10% solution, 0.8 cm^2, daily application
[5] = Day 6, 10 uL of 10% solution, 0.8 cm^2, daily application
[6] = Day 9, 10 uL of 10% solution, 0.8 cm^2, daily application
[7] = Day 12, 10 uL of 10% solution, 0.8 cm^2, daily application
[8] = Day 15, 10 uL of 10% solution, 0.8 cm^2, daily application

Row | Molecule | IC50 against M. fulvum (Microsporum fulvum) | IC50 against T. rubrum (Trichophyton rubrum) | IC50 against T. interdigitale (T. interdigitale) | IC50 against C. albicans (C. albicans) | Antifungal activity across the range of fungal pathogens [1] | Cells permeabilized (PI-positive) [2] | also measured
1 | HXL005: Class I plant defensin from Taraxcum kok-saghyz, SEQ ID NO:8 (Table 1) (KMCQTTSHAFSCVNDSGCSGSCEKQGFASGKCDGVRRRCTCYKKC; HXL005 Taraxcum kok-saghyz) | 5 µg/mL | 3 µg/mL | 3.5 µg/mL | 22 µg/mL | the most effective plant defensins across the range of fungal pathogens | ~25% | 
2 | HXL003: Class I plant defensin from Triticum aestivum, SEQ ID NO:6 (ARDCTSQSHKFVGLCLSDRNCASVCLTEYFTGGKCDHRRCVCTKGC; HXL003 Triticum aestivum) | >100 µg/mL |  |  | >100 µg/mL |  |  | 
3 | HXL035: Class I plant defensin from Picramnia pentandra, SEQ ID NO:2 (KVCTKPSKFFKGLCGFDRDCTVACKKEGLASGFCQNKGFFNVVCVCRKPC; HXL035 Picramnia pentandra) | 2 µg/mL | 2 µg/mL | 1 µg/mL | 18 µg/mL | the most effective plant defensins across the range of fungal pathogens |  | 
4 | C=C1CCN([C@H](C)[C@](O)(Cn2cncn2)c2ccc(F)cc2F)CC1 [Efinaconazole, efinaconazole] |  |  |  |  |  |  | Cumulative amount through nail ([3]; human, 1 day, 10 %): 0.4 µg; Cumulative amount through nail, percent (line without head; fits percent of applied dose) ([3]; human, 1 day, 10 %): 0.2%; Cumulative amount through nail ([3]; human, 2 day, 10 %): 0.7 µg; Cumulative amount through nail, percent (line without head; fits percent of applied dose) ([3]; human, 2 day, 10 %): 0.4%; Cumulative amount through nail ([3]; human, 3 day, 10 %): 1.3 µg; Cumulative amount through nail, percent (line without head; fits percent of applied dose) ([3]; human, 3 day, 10 %): 0.7%; Cumulative amount through nail ([3]; human, 4 day, 10 %): 1.6 µg; Cumulative amount through nail, percent (line without head; fits percent of applied dose) ([3]; human, 4 day, 10 %): 0.8%; Cumulative amount through nail ([3]; human, 6 day, 10 %): 2.6 µg; Cumulative amount through nail, percent (line without head; fits percent of applied dose) ([3]; human, 6 day, 10 %): 1.3%; Cumulative amount through nail ([3]; human, 9 day, 10 %): 4.0 µg; Cumulative amount through nail, percent (line without head; fits percent of applied dose) ([3]; human, 9 day, 10 %): 2.0%; Cumulative amount through nail ([3]; human, 12 day, 10 %): 5.4 µg; Cumulative amount through nail, percent (line without head; fits percent of applied dose) ([3]; human, 12 day, 10 %): 2.7%; Cumulative amount through nail ([3]; human, 15 day, 10 %): 6.5 µg; Cumulative amount through nail, percent (line without head; fits percent of applied dose) ([3]; human, 15 day, 10 %): 3.3%
5 | HXL002: Class I plant defensin from Triticum aestivum, SEQ ID NO:5 (RDCLSQSHKFKGACLSSSNCAAVCRTENFPDGECHTHNFARKCFCKRAC; HXL002 Triticum aestivum) | 50 µg/mL |  |  | 35 µg/mL |  | less than 2% | Inhibition of M. fulvum (Microsporum fulvum): very poor inhibitors; Inhibition of C. albicans (C. albicans): very poor inhibitors
6 | HXL001: Class I plant defensin from Zea mays, SEQ ID NO:4 (RHCLSQSHRFKGLCMSSNNCANVCQTENFPGGECKAEGATRKCFCKKIC; HXL001 Zea mays) | >100 µg/mL | >100 µg/mL |  | 35 µg/mL | did not display any activity at the concentrations tested | less than 2% | 
7 | OB1OCc2cc(F)ccc21 [Tavaborole, tavaborole] |  |  |  |  |  |  | Cumulative amount through nail [3, 4]: 60 µg; Cumulative amount through nail, percent (line without head; fits percent of cumulative applied dose) [3, 4]: 2.0%; Cumulative amount through nail [3, 5]: 220 µg; Cumulative amount through nail, percent (line without head; fits percent of cumulative applied dose) [3, 5]: 3.7%; Cumulative amount through nail [3, 6]: 610 µg; Cumulative amount through nail, percent (line without head; fits percent of cumulative applied dose) [3, 6]: 6.8%; Cumulative amount through nail [3, 7]: 1280 µg; Cumulative amount through nail, percent (line without head; fits percent of cumulative applied dose) [3, 7]: 10.7%; Cumulative amount through nail [3, 8]: 2240 µg; Cumulative amount through nail, percent (line without head; fits percent of cumulative applied dose) [3, 8]: 14.9%
8 | HXP4: Artificial defensin variant, Loop1B from a Class I defensin replaces that of a Solanaceous Class II defensin, SEQ ID NO:21 (RECKTESHRFKGPCITKPPCRKACISEKFTDGHCSKILRRCLCTKPC; HXP4) |  |  |  |  |  | 13% | 
9 | Cc1cc(C2CCCCC2)n(O)c(=O)c1 [Ciclopirox, ciclopirox] |  |  |  |  |  |  | Cumulative amount through nail ([3]; human, 3 day, 10 %): 1 µg; Cumulative amount through nail, percent (line without head; fits percent of cumulative applied dose) ([3]; human, 3 day, 10 %): 0.03%; Cumulative amount through nail ([3]; human, 6 day, 10 %): 2 µg; Cumulative amount through nail, percent (line without head; fits percent of cumulative applied dose) ([3]; human, 6 day, 10 %): 0.03%; Cumulative amount through nail ([3]; human, 9 day, 10 %): 4 µg; Cumulative amount through nail, percent (line without head; fits percent of cumulative applied dose) ([3]; human, 9 day, 10 %): 0.04%; Cumulative amount through nail ([3]; human, 12 day, 10 %): 6 µg; Cumulative amount through nail, percent (line without head; fits percent of cumulative applied dose) ([3]; human, 12 day, 10 %): 0.05%; Cumulative amount through nail ([3]; human, 15 day, 10 %): 9 µg; Cumulative amount through nail, percent (line without head; fits percent of cumulative applied dose) ([3]; human, 15 day, 10 %): 0.06%
10 | HXL013: Class I plant defensin from Glycine max, SEQ ID NO:11 (KDCLTRRHGFQGRCLFDRQCAHVCRSDGFIGGQCRGPLRKCFCSRPC; HXL013 Glycine max) | 5.5 µg/mL | 22 µg/mL |  | 20 µg/mL | intermediate activity | 5% | 
11 | HXL009: Class I plant defensin from Zea mays, SEQ ID NO:9 (Table 1) (TVCMRHNNFYHGPCMSNKDCANSCVQHNLGVGGYCRGKIPFNKECMCTFEC; HXL009 Zea mays) | >100 µg/mL |  |  | >100 µg/mL | did not display any activity at the concentrations tested | less than 2% | 
12 | HXL015: Class I plant defensin from Oryza sativa, SEQ ID NO:12 (RHCLSQSHRFKGMCVSSNNCANVCRTESFPDGECKSHGLERKCFCKKVC; HXL015 Oryza sativa) | 12.5 µg/mL | 10 µg/mL | 3.5 µg/mL |  | intermediate activity |  | 
13 | HXL012: Class I plant defensin from Amaranthus retroflexus, SEQ ID NO:10 (RMCKAPSKLFRGMCGIRDSNCDSVCRAEGMAAGDCHGLRRRCICSRPC; HXL012 Amaranthus retroflexus) | 18 µg/mL | 2 µg/mL | 2 µg/mL | 42 µg/mL | intermediate activity | less than 2% | Nail penetration [3]: did not penetrate the nail
